Reference: paper PMC9213889 (Frontiers in Chemistry, 2022)

Experiments:
[1] = target: α-glucosidase from Saccharomyces cerevisiae (EC 3.2.1.20) (Saccharomyces cerevisiae, UniProt P53341); assay: biochemical; type: biochemical; details: for IC50: mean ± SD, quadruplicate, PBS pH 6.8, 37°C, 5% DMSO, read-out: α-glucosidase inhibition (IC50 μM)
[2] = target: T1, α-amylase from hog pancreas (EC 3.2.1.1) (Sus scrofa, UniProt P00690); assay: α-amylase inhibition assay (starch, DNS, absorbance at 540 nm)
T1 sequence (P00690 16-511): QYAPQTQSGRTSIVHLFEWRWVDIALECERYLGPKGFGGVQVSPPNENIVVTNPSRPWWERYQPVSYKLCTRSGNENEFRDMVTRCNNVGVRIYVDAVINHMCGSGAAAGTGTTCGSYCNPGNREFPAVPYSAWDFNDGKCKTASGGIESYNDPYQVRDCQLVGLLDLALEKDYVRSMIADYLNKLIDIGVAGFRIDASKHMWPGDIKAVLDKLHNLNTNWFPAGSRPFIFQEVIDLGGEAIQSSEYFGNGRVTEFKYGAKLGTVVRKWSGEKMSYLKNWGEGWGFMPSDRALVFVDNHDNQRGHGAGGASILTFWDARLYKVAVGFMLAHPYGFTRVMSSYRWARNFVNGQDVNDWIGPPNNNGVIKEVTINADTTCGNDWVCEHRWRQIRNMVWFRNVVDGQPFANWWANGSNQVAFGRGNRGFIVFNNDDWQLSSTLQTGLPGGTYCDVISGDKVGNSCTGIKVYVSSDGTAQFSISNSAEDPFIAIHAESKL

α-amylase = target: T2, α-amylase (Sus scrofa, UniProt P00690); assay: Inhibition kinetics assay against α-amylase; type: biochemical, hog
T2 construct: α-amylase from hog pancreas (EC 3.2.1.1); purchased Sigma-Aldrich; host or cells: hog pancreas
T2 sequence (P00690 16-511): T1 sequence (P00690 16-511)
Protocol: All experiments were carried out in quadruplicate.
(§1) The inhibition kinetics of 4i and 4o against α-glucosidase and α-amylase, respectively, was investigated using a similar aforementioned inhibition assay method. The enzyme inhibitory kinetics was obtained by the plots of the enzymatic reaction rate vs. enzyme concentration with or without the inhibitor, and the substrate inhibitory kinetics was measured using the Lineweaver–Burk plot of the enzymatic reaction rate vs. substrate concentration with or without the inhibitor.

HepG2 cells = assay: Cell cytotoxicity assay, HepG2; type: cell-based; details: under a concentration of 100 μM
3T3-L1 cells = assay: Cell cytotoxicity assay, 3T3-L1; type: cell-based; details: under a concentration of 100 μM
α-glucosidase = target: T3, α-glucosidase (Saccharomyces cerevisiae, UniProt P53341); assay: Inhibition kinetics assay against α-glucosidase; type: biochemical
T3 construct: purchased Sigma-Aldrich
T3 sequence (P53341 whole entry): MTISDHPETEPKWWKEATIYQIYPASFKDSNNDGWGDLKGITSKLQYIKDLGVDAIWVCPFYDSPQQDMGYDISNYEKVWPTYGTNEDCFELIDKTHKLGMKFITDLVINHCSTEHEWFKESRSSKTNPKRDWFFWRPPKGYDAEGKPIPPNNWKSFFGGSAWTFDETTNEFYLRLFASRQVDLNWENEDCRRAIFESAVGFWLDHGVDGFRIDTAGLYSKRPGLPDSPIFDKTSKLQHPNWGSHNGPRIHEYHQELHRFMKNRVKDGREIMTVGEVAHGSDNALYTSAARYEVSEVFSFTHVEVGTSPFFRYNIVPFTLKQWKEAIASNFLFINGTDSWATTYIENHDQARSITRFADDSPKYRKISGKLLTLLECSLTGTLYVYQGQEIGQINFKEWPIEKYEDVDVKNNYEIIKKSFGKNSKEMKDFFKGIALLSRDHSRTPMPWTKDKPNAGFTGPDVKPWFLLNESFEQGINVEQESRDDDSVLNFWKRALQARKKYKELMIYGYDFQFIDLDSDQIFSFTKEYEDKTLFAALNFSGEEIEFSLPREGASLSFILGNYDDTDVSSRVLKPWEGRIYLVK
Protocol: The α-glucosidase inhibition assay of analogs 4a–4s was carried out as in previously reported methods, with minor modifications ([Xu et al., 2020]). Then, 10 μL α-glucosidase and 10 μL test sample (dissolved in DMSO) were added into 130 μL PBS (50 mM phosphate saline buffer, pH 6.8) and incubated for 10 min at 37°C. After adding 50 μL pNPG, the absorbance change of the mixture at 405 nm was monitored. Then, the percent inhibition was calculated ([Ademiluyi and Oboh, 2013]). All experiments were carried out in quadruplicate.
as §1

[3] = plots of enzymatic reaction rate vs. enzyme concentration pass through the origin

Sequence of α-glucosidase from Saccharomyces cerevisiae (EC 3.2.1.20) (P53341 whole entry): as above

IC50 [1] [µM] | melting point [°C] | IC50 [2] [µM] | Structure (SMILES) | further results
3.96 ± 0.21 | 296 to 297 | 59.1 ± 1.98 | COc1ccc(/C=C2\C[C@@]3(C)C(CC[C@]4(C)C3CC=C3C5CC(C)(C)CC[C@]5(C(=O)O)CC[C@]34C)C(C)(C)[C@H]2O)cc1 (some centres unmarked) [Compound 4g] | –
0.86 ± 0.05 | 128 to 129 | 51.1 ± 2.55 | Cc1cccc(/C=C2\C[C@@]3(C)C(CC[C@]4(C)C3CC=C3C5CC(C)(C)CC[C@]5(C(=O)O)CC[C@]34C)C(C)(C)[C@H]2O)c1 (some centres unmarked) [Compound 4c] | –
1.23 ± 0.07 | 226 to 227 | 15.7 ± 1.53 | CC1(C)CC[C@]2(C(=O)O)CC[C@]3(C)C(=CCC4[C@@]5(C)C/C(=C\c6ccc(F)cc6)[C@H](O)C(C)(C)C5CC[C@]43C)C2C1 (some centres unmarked) [Compound 4j] | –
1.73 ± 0.16 | 196 to 197 | 20.5 ± 1.09 | CC1(C)CC[C@]2(C(=O)O)CC[C@]3(C)C(=CCC4[C@@]5(C)C/C(=C\c6ccc(Cl)cc6)[C@H](O)C(C)(C)C5CC[C@]43C)C2C1 (some centres unmarked) [Compound 4m] | –
0.83 ± 0.04 | 165 to 166 | 18.5 ± 1.39 | CC1(C)CC[C@]2(C(=O)O)CC[C@]3(C)C(=CCC4[C@@]5(C)C/C(=C\c6ccccc6F)[C@H](O)C(C)(C)C5CC[C@]43C)C2C1 (some centres unmarked) [Compound 4h] | –
1.18 ± 0.14 | 224 to 225 | 19.5 ± 1.85 | CC1(C)CC[C@]2(C(=O)O)CC[C@]3(C)C(=CCC4[C@@]5(C)C/C(=C\c6ccc(Br)cc6)[C@H](O)C(C)(C)C5CC[C@]43C)C2C1 (some centres unmarked) [Compound 4p] | –
0.72 ± 0.06 | 234 to 235 | 16.8 ± 1.04 | CC1(C)CC[C@]2(C(=O)O)CC[C@]3(C)C(=CCC4[C@@]5(C)C/C(=C\c6ccccc6Br)[C@H](O)C(C)(C)C5CC[C@]43C)C2C1 (some centres unmarked) [Compound 4n] | –
1.22 ± 0.14 | 219 to 220 | 55.6 ± 2.52 | CC1(C)CC[C@]2(C(=O)O)CC[C@]3(C)C(=CCC4[C@@]5(C)C/C(=C\c6ccc([N+](=O)[O-])cc6)[C@H](O)C(C)(C)C5CC[C@]43C)C2C1 (some centres unmarked) [Compound 4s] | –
1.92 ± 0.13 | 200 to 201 | 20.5 ± 2.29 | COc1ccccc1/C=C1\C[C@@]2(C)C(CC[C@]3(C)C2CC=C2C4CC(C)(C)CC[C@]4(C(=O)O)CC[C@]23C)C(C)(C)[C@H]1O (some centres unmarked) [Compound 4e] | –
0.45 ± 0.02 | 242 to 243 | 19.4 ± 0.73 | CC1(C)CC[C@]2(C(=O)O)CC[C@]3(C)C(=CCC4[C@@]5(C)C/C(=C\c6cccc(Cl)c6)[C@H](O)C(C)(C)C5CC[C@]43C)C2C1 (some centres unmarked) [Compound 4l] | –
1.63 ± 0.1 | 200 to 201 | 60.3 ± 1.88 | COc1cccc(/C=C2\C[C@@]3(C)C(CC[C@]4(C)C3CC=C3C5CC(C)(C)CC[C@]5(C(=O)O)CC[C@]34C)C(C)(C)[C@H]2O)c1 (some centres unmarked) [Compound 4f] | –
0.61 ± 0.09 | 210 to 211 | 19.8 ± 1.22 | Cc1ccccc1/C=C1\C[C@@]2(C)C(CC[C@]3(C)C2CC=C2C4CC(C)(C)CC[C@]4(C(=O)O)CC[C@]23C)C(C)(C)[C@H]1O (some centres unmarked) [Compound 4b] | –
0.52 ± 0.02 | 197 to 198 | 9.59 ± 0.58 | CC1(C)CCC2(C(=O)O)CCC3(C)C(=CCC4C5(C)CC(=Cc6cccc(Br)c6)C(O)C(C)(C)C5CCC43C)C2C1 (centres unmarked) [Compound 4o] | Inhibition type against α-amylase (α-amylase; Lineweaver–Burk plots, lines intersect in the first quadrant): mixed-type inhibitor; Reversibility of inhibition on α-amylase (α-amylase; [3]): reversible; Cell cytotoxicity against HepG2 cells (HepG2 cells): non-cytotoxic effect; Cell cytotoxicity against 3T3-L1 cells (3T3-L1 cells): non-cytotoxic effect
1.08 ± 0.04 | 191 to 192 | 20.8 ± 1.88 | CC1(C)CC[C@]2(C(=O)O)CC[C@]3(C)C(=CCC4[C@@]5(C)C/C(=C\c6cccc([N+](=O)[O-])c6)[C@H](O)C(C)(C)C5CC[C@]43C)C2C1 (some centres unmarked) [Compound 4r] | –
1.17 ± 0.1 | 197 to 198 | 20.2 ± 1.2 | CC1(C)CC[C@]2(C(=O)O)CC[C@]3(C)C(=CCC4[C@@]5(C)C/C(=C\c6ccccc6[N+](=O)[O-])[C@H](O)C(C)(C)C5CC[C@]43C)C2C1 (some centres unmarked) [Compound 4q] | –
1.9 ± 0.31 | – | 41.2 ± 2.99 | CC1(C)CC[C@]2(C(=O)O)CC[C@]3(C)C(=CCC4[C@@]5(C)C/C(=C\c6ccccc6)[C@H](O)C(C)(C)C5CC[C@]43C)C2C1 (some centres unmarked) [Compound 4a] | –
0.88 ± 0.04 | 219 to 220 | 45.4 ± 2.16 | CC1(C)CC[C@]2(C(=O)O)CC[C@]3(C)C(=CCC4[C@@]5(C)C/C(=C\c6ccccc6Cl)[C@H](O)C(C)(C)C5CC[C@]43C)C2C1 (some centres unmarked) [Compound 4k] | –
2.41 ± 0.08 | 146 to 147 | 62.2 ± 1.89 | Cc1ccc(/C=C2\C[C@@]3(C)C(CC[C@]4(C)C3CC=C3C5CC(C)(C)CC[C@]5(C(=O)O)CC[C@]34C)C(C)(C)[C@H]2O)cc1 (some centres unmarked) [Compound 4d] | –

Structure (SMILES) | IC50 [1] [µM] | melting point [°C] | IC50 [2] [µM] | further results
CC1(C)CC[C@]2(C(=O)O)CC[C@]3(C)C(=CCC4[C@@]5(C)C/C(=C\c6cccc(F)c6)[C@H](O)C(C)(C)C5CC[C@]43C)C2C1 (some centres unmarked) [Compound 4i] | 0.4 ± 0.02 | 157 to 158 | 20.3 ± 2.18 | α-glucosidase inhibition, times stronger than acarbose [1]: ~1,663 times; Inhibition type against α-glucosidase (α-glucosidase; Lineweaver–Burk plots, lines intersect in the second quadrant): mixed-type inhibitor; Reversibility of inhibition on α-glucosidase (α-glucosidase; [3]): reversible; Cell cytotoxicity against HepG2 cells (HepG2 cells): non-cytotoxic effect; Cell cytotoxicity against 3T3-L1 cells (3T3-L1 cells): non-cytotoxic effect
